The source of these data is US9120728B2, “Modulators of cortical dopaminergic- and NMDA-receptor-mediated glutamatergic neurotransmission” (INTEGRATIVE RESEARCH LABORATORIES SWEDEN AB, priority 2011, dated 2015).

By ED50 is commonly meant the midpoint of the dose-response relation.

The test system of assay [1] is MK-801 pre-treated rats. The assay can be described thus: Reduction of MK-801-induced hyper-locomotion. It counts as in vivo. The following applies: Rattus norvegicus; MK-801 0.7 mg/kg i.p. 90 minutes before test compound; locomotor activity between 45 and 60 minutes after administration; 0-100 μmol/kg s.c. From the text: Reduction of MK-801-Induced Hyper-Locomotion Another animal model of antipsychotic activity is based on administration of the glutamate antagonist MK-801. Glutamate antagonists (i.e. NMDA antagonists), can induce psychoses in man (see Psychopharmacology, 4th Generation of progress Chapter 101, p. 1205 and 1207) and induce behavioural aberrations in animals. Thus, the ability of a drug to affect schizophrenia and psychotic states can be measured using behavioural models based on experimentally-induced hypoglutamatergic states. In this study the NMDA antagonist MK-801 (0.7 mg/kg i.p.) was used to create a hypoglutamatergic state where the rats display abnormal, hyperactive behaviour.
(§1) Behavioural activity is measured using eight Digiscan activity monitors (RXYZM (16) TAO, Omnitech Electronics, Columbus, Ohio, USA), connected to an Omnitech Digiscan analyzer and an Apple Macintosh computer equipped with a digital interface board (NB DIO-24, National Instruments, USA). […]
(§2) Behavioural data from each activity monitor, representing the position (horizontal center of gravity and vertical activity) of the animal at each time, are recorded at a sampling frequency of 25 Hz and collected using a custom written LABView™ application. The data from each recording session are stored and analyzed with respect to distance traveled. […]

For assay [2], the system named is d-amphetamine pre-treated rats. The assay can be described thus: Reduction of amphetamine-induced hyper-locomotion. The following applies: Rattus norvegicus; rats pre-treated with d-amphetamine 1.5 mg/kg i.p.; test compound 0-100 μmol/kg s.c.; distance during last 45 minutes of one hour. In kind it is in vivo.
Description: The increase in activity after treatment with d-amphetamine is a standard model of hyperdopaminergia. In this model, dopaminergic neurotransmission is increased by systemic administration of d-amphetamine at a dose that is sufficiently high to produce a large increase in locomotor activity. The ability of a compound to antagonize this hyperactivity reflects anti-dopaminergic properties. Furthermore, antagonism of d-amphetamine induced hyperactivity is widely used as a standard assay of antipsychotic activity (see Psychopharmacology 4th Generation of progress Chapter 68, p 793-795).
as §1, §2
ED50 value for reduction of amphetamine-induced hyper-locomotion is calculated by curve fitting. […]

The subject of assay [3] is drug-naive rats. Put plainly: Effects on spontaneous locomotion (locomotor activity in drug-naive rats). It counts as in vivo, rat. The following applies: recorded for 60 minutes immediately after drug administration. How it is done: Prior art dopamine receptor antagonists are known to induce profound decrease in locomotor activity (catalepsy).
Behavioural activity is measured using eight Digiscan activity monitors (RXYZM (16) TAO, Omnitech Electronics, Columbus, Ohio, USA), connected to an Omnitech Digiscan analyzer and an Apple Macintosh computer equipped with a digital interface board (NB DIO-24, National Instruments, USA). Each activity monitor consists of a quadratic metal frame (W×L=40 cm×40 cm) equipped with photobeam sensors. During measurements of behavioural activity, a rat is put in a transparent acrylic cage (WxLxH, 40×40×30 cm) which in turn is placed in the activity monitor. Each activity monitor is equipped with three rows of infrared photobeam sensors, each row consisting of 16 sensors. Two rows are placed along the front and the side of the floor of the cage, at a 90° angle, and the third row is placed 10 cm above the floor to measure vertical activity. Photobeam sensors are spaced 2.5 cm apart. Each activity monitor is fitted in an identical sound and light attenuating box containing a weak house light and a fan.
The computer software is written using object oriented programming (LabVIEW®, National instruments, Austin, Tex., USA).
Behavioural data from each activity monitor, representing the position (horizontal center of gravity and vertical activity) of the animal at each time, are recorded at a sampling frequency of 25 Hz and collected using a custom written LABView™ application. The data from each recording session are stored and analyzed with respect to distance traveled. Each behavioural recording session lasts 60 min, starting approximately 4 min after the injection of test compound. Similar behavioural recording procedures are applied for drug-naïve and drug pre-treated rats. Rats pre-treated with d-amphetamine are given a dose of 1.5 mg/kg i.p. 10 min before the recording session in the activity monitor. Rats pre-treated with MK-801 are given a dose of 0.7 mg/kg i.p. 90 min before the recording session in the activity monitor. The results are presented as counts/60 minutes, or counts/30 minutes, in arbitrary length units. Statistical comparisons are carried out using Student's t-test against the control group. In MK-801 or amphetamine pre-treated animals, statistical comparisons are made against the MK801 or d-amphetamine controls, respectively.

Take `CCCNCCOc1cc(F)cc(S(C)(=O)=O)c1` [Example 1, N-[2-(3-fluoro-5-methylsulfonyl-phenoxy)ethyl]propan-1-amine]: the figures for the ED50 in assay [1] and in assay [2] were 5.6 µmol/kg and 24 µmol/kg, respectively. In addition, the Locomotor activity in assay [3] (3.7 μmol/kg) turned out to be 8049 counts/60 min; in assay [3] (11 μmol/kg), 7325 counts/60 min; in assay [3] (33 μmol/kg), 6025 counts/60 min.
